Legend:
Plasmodium falciparum [1] = assay: Antimalarial activity against chloroquine-sensitive Plasmodium falciparum D6 assessed as plasmodial LDH activity; assay type: functional, organism-based
Plasmodium falciparum [2] = assay: Antimalarial activity against chloroquine-resistant Plasmodium falciparum W2 assessed as plasmodial LDH activity; assay type: functional, organism-based

SMILES | IC50 (Plasmodium falciparum [1]) [nM] | IC50 (Plasmodium falciparum [2]) [nM]
Cc1cc(NCCCCNc2ccnc3cc(Cl)ccc23)nc(NCCCO)n1 | 50 | 50
Cc1cc(NCCCCNc2ccnc3cc(Cl)ccc23)nc(NCCO)n1 | 50 | 50
Cc1cc(NCCNc2ccnc3cc(Cl)ccc23)nc(NCCCCO)n1 | 50 | 50
Clc1ccc2c(NCCCNc3ccnc(Cl)n3)ccnc2c1 | 50 | 50
Clc1ccc2c(NCCCNc3cc(Cl)nc(N4CCCCC4)n3)ccnc2c1 | 50 | 50
Cc1cc(N2CCN(c3ccnc4cc(Cl)ccc34)CC2)nc(N2CCOCC2)n1 | 130 | 130
OCCCNc1nccc(N2CCN(c3ccnc4cc(Cl)ccc34)CC2)n1 | 130 | 130
CCN1CCN(c2nccc(NCCNc3ccnc4cc(Cl)ccc34)n2)CC1 | 50 | 50
Clc1ccc2c(NCCCNc3ccnc(N4CCCCC4)n3)ccnc2c1 | 50 | 50
CN1CCN(c2nc(Cl)cc(NCCCNc3ccnc4cc(Cl)ccc34)n2)CC1 | 50 | 50
CCN1CCN(c2nc(Cl)cc(NCCNc3ccnc4cc(Cl)ccc34)n2)CC1 | 50 | 50
Cc1cc(NCCCNc2ccnc3cc(Cl)ccc23)nc(NCCCO)n1 | 50 | 50
CCN1CCN(c2nccc(NCCCNc3ccnc4cc(Cl)ccc34)n2)CC1 | 50 | 50
CN1CCN(c2nccc(NCCNc3ccnc4cc(Cl)ccc34)n2)CC1 | 50 | 50
COc1cc(Nc2nccc(N3CCN(c4ccnc5cc(Cl)ccc45)CC3)n2)cc(OC)c1 | 130 | 130
Clc1ccc2c(NCCNc3cc(Cl)nc(N4CCOCC4)n3)ccnc2c1 | 50 | 50
OCCCCCNc1nccc(NCCNc2ccnc3cc(Cl)ccc23)n1 | 50 | 50
Clc1ccc2c(NCCCNc3ccnc(N4CCOCC4)n3)ccnc2c1 | 50 | 50
COc1ccc(Nc2nccc(N3CCN(c4ccnc5cc(Cl)ccc45)CC3)n2)cc1 | 130 | 130
Cc1ccc(Nc2nc(C)cc(N3CCN(c4ccnc5cc(Cl)ccc45)CC3)n2)cc1 | 130 | 130
Clc1ccc(Nc2nccc(N3CCN(c4ccnc5cc(Cl)ccc45)CC3)n2)cc1 | 130 | 130

SMILES | IC50 (Plasmodium falciparum [1]) [nM] | IC50 (Plasmodium falciparum [2]) [nM]
OCCNc1nccc(NCCCCNc2ccnc3cc(Cl)ccc23)n1 | 50 | 50
Clc1ccc2c(NCCCNc3cc(Cl)nc(N4CCOCC4)n3)ccnc2c1 | 50 | 50
OCCCCCNc1nccc(NCCCNc2ccnc3cc(Cl)ccc23)n1 | 50 | 50
OCCCCCCNc1nccc(NCCCNc2ccnc3cc(Cl)ccc23)n1 | 50 | 50
Cc1cc(N2CCN(c3ccnc4cc(Cl)ccc34)CC2)nc(Nc2ccccc2)n1 | 130 | 130
Cc1cc(N2CCN(c3ccnc4cc(Cl)ccc34)CC2)nc(Cl)n1 | 130 | 130
OCCNc1nccc(NCCCNc2ccnc3cc(Cl)ccc23)n1 | 50 | 50
Cc1cc(N2CCN(c3ccnc4cc(Cl)ccc34)CC2)nc(Nc2ccc(Br)cc2)n1 | 130 | 130
CCN1CCN(c2nc(Cl)cc(NCCCNc3ccnc4cc(Cl)ccc34)n2)CC1 | 50 | 50
OCCCCNc1nccc(NCCNc2ccnc3cc(Cl)ccc23)n1 | 50 | 50
Cc1cc(NCCCCNc2ccnc3cc(Cl)ccc23)nc(NCCCCO)n1 | 50 | 50
CN1CCN(c2nc(Cl)cc(NCCNc3ccnc4cc(Cl)ccc34)n2)CC1 | 50 | 50
Cc1cc(NCCCNc2ccnc3cc(Cl)ccc23)nc(NCCO)n1 | 50 | 50
OCCCCNc1nccc(NCCCCNc2ccnc3cc(Cl)ccc23)n1 | 50 | 50
Cc1cc(NCCNc2ccnc3cc(Cl)ccc23)nc(NCCCO)n1 | 50 | 50
COc1cc(Nc2nc(C)cc(N3CCN(c4ccnc5cc(Cl)ccc45)CC3)n2)cc(OC)c1 | 130 | 130
CN1CCN(c2nccc(NCCCNc3ccnc4cc(Cl)ccc34)n2)CC1 | 50 | 50
OCCCNc1nccc(NCCCNc2ccnc3cc(Cl)ccc23)n1 | 50 | 50
Cc1cc(NCCCCNc2ccnc3cc(Cl)ccc23)nc(NCCCCCCO)n1 | 50 | 50
OCCCNc1nccc(NCCCCNc2ccnc3cc(Cl)ccc23)n1 | 50 | 50
Cc1cc(N2CCN(c3ccnc4cc(Cl)ccc34)CC2)nc(NCCO)n1 | 130 | 130

SMILES | IC50 (Plasmodium falciparum [1]) [nM] | IC50 (Plasmodium falciparum [2]) [nM]
Cc1cc(NCCCNc2ccnc3cc(Cl)ccc23)nc(NCCCCCO)n1 | 50 | 50
Cc1cc(N2CCN(c3ccnc4cc(Cl)ccc34)CC2)nc(N2CCNCC2)n1 | 130 | 130
Clc1ccc2c(N3CCN(c4ccnc(Nc5ccccc5)n4)CC3)ccnc2c1 | 130 | 130
Cc1cc(N2CCN(c3ccnc4cc(Cl)ccc34)CC2)nc(Nc2ccc(F)cc2)n1 | 130 | 130
Cc1cc(NCCNc2ccnc3cc(Cl)ccc23)nc(NCCCCCO)n1 | 50 | 50
OCCCCNc1nccc(NCCCNc2ccnc3cc(Cl)ccc23)n1 | 50 | 50
Cc1cc(N2CCN(c3ccnc4cc(Cl)ccc34)CC2)nc(N2CCCC2)n1 | 130 | 130
Clc1ccc2c(NCCNc3cc(Cl)nc(N4CCCCC4)n3)ccnc2c1 | 50 | 50
Clc1ccc2c(NCCNc3ccnc(Cl)n3)ccnc2c1 | 50 | 50
Cc1cc(N2CCN(c3ccnc4cc(Cl)ccc34)CC2)nc(NC2CCCCC2)n1 | 130 | 130
Cc1cc(NCCNc2ccnc3cc(Cl)ccc23)nc(NCCCCCCO)n1 | 50 | 50
OCCNc1nccc(N2CCN(c3ccnc4cc(Cl)ccc34)CC2)n1 | 130 | 130
Fc1ccc(Nc2nccc(N3CCN(c4ccnc5cc(Cl)ccc45)CC3)n2)cc1 | 130 | 130
Cc1cc(NCCCNc2ccnc3cc(Cl)ccc23)nc(NCCCCO)n1 | 50 | 50
Clc1ccc2c(N3CCN(c4ccnc(Nc5ccc(Br)cc5)n4)CC3)ccnc2c1 | 130 | 130
Cc1cc(NCCCCNc2ccnc3cc(Cl)ccc23)nc(NCCCCCO)n1 | 50 | 50
OCCCCCNc1nccc(NCCCCNc2ccnc3cc(Cl)ccc23)n1 | 50 | 50
Cc1ccc(Nc2nccc(N3CCN(c4ccnc5cc(Cl)ccc45)CC3)n2)cc1 | 130 | 130
Cc1cc(N2CCN(c3ccnc4cc(Cl)ccc34)CC2)nc(Nc2ccc(Cl)cc2)n1 | 130 | 130
Cc1cc(NCCCNc2ccnc3cc(Cl)ccc23)nc(NCCCCCCO)n1 | 50 | 50
OCCCCCCNc1nccc(NCCNc2ccnc3cc(Cl)ccc23)n1 | 50 | 50

Source: ChEMBL document CHEMBL3817764, “Pyrimidine-based antimalarials: design strategies and antiplasmodial effects” (Medchemcomm, 2016)
